Reference: patent publication US20150050368A1, “METHOD FOR PRODUCING A PLANT EXTRACT FROM DESMODIUM AND ITS EXTRACT THEREOF” (priority 2012, published 2015)

Assays:
[1] = tested on: older, non-diabetic patients; settings: intake for 6 weeks; cited from earlier work
[2] = tested on: streptozotocin-induced diabetic rats; settings: rat, in vivo; cited from earlier work
[3] = tested on: LPS-induced dendritic bone marrow cells; settings: cited from earlier work
[4] = tested on: liver injury induced by galactosamine; assay: preventive effect of Desmodium adscendens decoction against galactosamine-induced liver injury in rats; assay type: in vivo, Sprague Dawley rats; settings: 48 h after D-galactosamine 650 mg/kg IP; oral gavage; Desmodium equivalent to 20 or 5 mg/kg D-pinitol, D-pinitol 20 mg/kg, silymarin 20 mg/kg
From the text: As far as the in vivo evaluation of the hepato-protective effect of Desmodium adscendens decoction is concerned, D-pinitol has a hepato-protective effect. One of the constituents of Desmodium adscendens is D-pinitol. […] In this in vivo experiment the preventive effect of a decoction of Desmodium adscendens against liver injury induced by galactosamine was investigated in rats. Silymarin was used as the reference agent. Silymarin is a mixture of various flavanolignans from the fruits of the milk thistle plant, Silybum marianum. The principal components are silybin, […]. In addition, small quantities of isosilybin are present in milk thistle. […] The liver injury and the possible hepato-protective effect were evaluated by determining the following parameters in serum: ALT (=GPT), AST (=GOT), ALP. […] After administration of the hepatotoxic agent D-galactosamine, both after 24 h and after 48 h, liver injury was observed through a marked increase in the three parameters determined (control vs. hepatotox).

[5] = tested on: severely insulin-resistant mice; settings: mouse, in vivo; cited from earlier work
[6] = tested on: liver injury with galactosamine; settings: after induction of liver injury with galactosamine; cited from earlier work
[7] = tested on: ethanol-induced liver injury; assay: protective effect against ethanol-induced liver injury in rats; assay type: in vivo, male Wistar rats
From the text: The purpose of the experiment is to evaluate the hepatoprotective effects of decoct of Desmodium adscendens against ethanol-induced liver injury, standardized to its primary ingredient: D-pinitol. Materials and Methods: 66 male Wistar rats of 200-225 g (Charles River, Brussels, Belgium) were randomly divided into 6 groups: the negative control group (CON: no hepatotoxic agent, no treatment: 8 rats), the hepatotoxic group (HEP: induction of hepatotoxicity, no treatment: 20 rats), the Desmodium I group (induction of hepatotoxicity, treatment with Desmodium adscendens decoct, equivalent to 2 mg/kg of D-pinitol: 10 rats), the group II Desmodium (induction of hepatotoxicity, treatment with Desmodium adscendens decoct, equivalent to 10 mg/kg of D-pinitol: 10 rats), the D-pinitol group (PIN: induction of hepatotoxicity, treatment with 10 mg/kg of D-pinitol: 10 rats), the positive control group (SIL: induction of hepatotoxicity, treatment with 20 mg/kg of silymarin: 8 rats). 2 days prior to ethanol administration, an appropriate amount of lyophilized decoct, pinitol silymarin or suspended in water and administered by gavage (or vehicle for the control group). Hepatotoxicity was induced by daily oral gavage with a 55% ethanol solution (except for the negative control group). […] Ethanol was administered for a period of 7 weeks. Was administered daily, depending on the group, treated with the specific decoct, pinitol or silymarin (oral gavage) to the end of the experiment. For ethanol administration (default values), and at weeks 3, 4, 5 and 6, blood samples (1.5 ml) were taken from the lateral tail vein (Multi Fat 600, Sarstedt). This experiment was approved by the Ethics Committee for Animal Experiments of the University of Antwerpen (17-01-2011, 2010-37).
A schematic overview of the different treatment groups is given below next. Concentrations of enzyme aspartate transaminase (AST, GOT) and alanine transaminase (ALT, GPT) were in the serum samples from the test animals as determined by routine laboratory techniques (Senior, 2009). Elevated levels can be considered as an indication of liver cell destruction or a change in membrane permeability.
Statistics to analyze the difference between CON and HEP for AST and ALT, and between HEP and DES 1, DES 2, PIN and SIL for AST and ALT, was a mixed model analyze performed. The log-rank test was performed for statistical analysis of survival data.

[8] = tested on: streptozotocin-induced diabetic mice; settings: mouse, in vivo; cited from earlier work
[9] = tested on: carrageenan-induced oedema of the paw; cotton pellet granuloma; settings: cited from earlier work
[10] = in vivo; cited from earlier work
neutrophils = settings: cited from earlier work
[11] = tested on: insulin-resistant patients; settings: 20 mg/kg/day for 4 weeks; cited from earlier work
L6 rat muscle cells = settings: cited from earlier work
foam cells = settings: cited from earlier work
3T3-L1 adipocytes = settings: cited from earlier work
OVA-induced asthma = settings: mouse, in vivo; cited from earlier work
[12] = tested on: patients with type 2 diabetes; settings: cited from earlier work
[13] = after 4 weeks of ethanol, daily oral gavage, DES1 eq. 2, DES2 eq. 10 mg/kg D-pinitol, PIN 10 mg/kg, SIL 20 mg/kg
[14] = after 5 weeks of ethanol, daily oral gavage, DES1 eq. 2, DES2 eq. 10 mg/kg D-pinitol, PIN 10 mg/kg, SIL 20 mg/kg
[15] = after 6 weeks of ethanol, daily oral gavage, DES1 eq. 2, DES2 eq. 10 mg/kg D-pinitol, PIN 10 mg/kg, SIL 20 mg/kg
[16] = 13 weeks of treatment with 2×60 mg per day

CO[C@H]1[C@H](O)[C@@H](O)[C@@H](O)[C@H](O)[C@@H]1O [D-pinitol, 3-O-methyl-chiro-inositol]
insulin-mediated glucose metabolism [1]: no effect | AST, ALT and alkaline phosphatase values in the liver [2]: normalises | blood glucose, haemoglobin and insulin [2]: lowers blood glucose haemoglobin and increases insulin | effect on lipids [2]: lipid-lowering effect | production of IL-12 and pro-inflammatory cytokines ([3]; LPS-induced): reduces the production | expression of MHC-I, MHC-II, CD80 and CD86 ([3]; in vitro and in vivo): decreases the expression | ALT (GPT) in serum compared with the hepatotoxic group [4]: decreased significantly | AST (GOT) in serum compared with the hepatotoxic group [4]: decreased significantly | efficacy [5]: not effective | AST and ALT liver values and TNF-α values [6]: normalises | lipid peroxidation [6]: reduces lipid peroxidation | survival of test animals ([7]; W0, DES1 eq. 2, DES2 eq. 10 mg/kg D-pinitol, PIN 10 mg/kg, SIL 20 mg/kg): 100% | survival of test animals ([7]; W1 of ethanol, DES1 eq. 2, DES2 eq. 10 mg/kg D-pinitol, PIN 10 mg/kg, SIL 20 mg/kg): 100% | survival of test animals ([7]; W2 of ethanol, DES1 eq. 2, DES2 eq. 10 mg/kg D-pinitol, PIN 10 mg/kg, SIL 20 mg/kg): 70% | survival of test animals ([7]; W3 of ethanol, DES1 eq. 2, DES2 eq. 10 mg/kg D-pinitol, PIN 10 mg/kg, SIL 20 mg/kg): 60% | survival of test animals ([7]; W4 of ethanol, DES1 eq. 2, DES2 eq. 10 mg/kg D-pinitol, PIN 10 mg/kg, SIL 20 mg/kg): 60% | survival of test animals ([7]; W5 of ethanol, DES1 eq. 2, DES2 eq. 10 mg/kg D-pinitol, PIN 10 mg/kg, SIL 20 mg/kg): 50% | survival of test animals ([7]; W6 of ethanol, DES1 eq. 2, DES2 eq. 10 mg/kg D-pinitol, PIN 10 mg/kg, SIL 20 mg/kg): 40% | survival of test animals ([7]; W6 of ethanol, DES1 eq. 2, DES2 eq. 10 mg/kg D-pinitol, PIN 10 mg/kg, SIL 20 mg/kg, listed as PIN): 40% | Serum ALT ALT_4 Average [7, 13]: 75.9 | Serum AST AST_4 Average [7, 13]: 89.3 U/I | Serum ALT ALT_5 Mean [7, 14]: 61.6 | Serum AST AST_5 Average [7, 14]: 78.3 U/I | Serum ALT ALT_6 Mean [7, 15]: 65.6 | Serum AST AST_6 Mean [7, 15]: 86.3 U/I | statistical difference in survival vs the hepatotoxic group ([7]; log-rank test, 6 weeks, DES 1 eq. 2, DES 2 eq. 10 mg/kg pinitol, pinitol 10 mg/kg, silymarin 20 mg/kg): No statistically significant difference | hypoglycaemic effect [8]: acute and chronic hypoglycaemic effect | effect against acute inflammation ([9]; carrageenan-induced oedema of the paw): anti-inflammatory properties | effect against subacute inflammation ([9]; cotton pellet granuloma): anti-inflammatory properties | metabolism in humans [10]: metabolised partly to D-chiro-inositol | TNF-alpha expression (neutrophils): inhibits TNF-alpha expression | basal and insulin-mediated glucose or lipid metabolism [11]: no effect | basal uptake of 2-deoxyglucose (L6 rat muscle cells; L6 muscle cells): increases the basal uptake of 2-deoxyglucose | translocation of GLUT4 to the cell membrane (L6 rat muscle cells; L6 rat muscle cells): induces the translocation of GLUT4 to the cell membrane | formation of foam cells (foam cells): moderately decreases | expression of adiponectin mRNA (3T3-L1 adipocytes; 1 mM): increases expression of adiponectin mRNA | mRNA expression of GLUT4, IRS, PPARγ and C/EBP (3T3-L1 adipocytes; 0.5 and 1 mM): increases the mRNA expression | hyperreactivity and inflammation observed in asthma (OVA-induced asthma): reduces | number of inflammatory cells in bronchoalveolar lavage fluid (OVA-induced asthma): decreases | HDL cholesterol values [12, 16]: increased | total cholesterol, LDL/HDL ratio and systolic and diastolic blood pressures [12, 16]: decreased | fasting glucose values, HbA1c values and insulin ([12]; human, in vivo): favourable effect | fasting and postprandial glucose values and HbA1c values ([12]; uncontrolled type 2 diabetes, 12 weeks, 20 mg/kg/day, in addition to the usual therapy): improves | levels of adiponectin, leptin, C-reactive protein (CRP) and free fatty acids ([12]; uncontrolled type 2 diabetes, 12 weeks, 20 mg/kg/day): does not significantly change
